In patent US20100105748A1, “METHODS AND COMPOSITIONS FOR TREATMENT OF DRUG ADDICTION” (priority 2007, published 2010):
“Also recorded” adds a separate entry of the source. Structures can show the parent of a compound that is named as a salt.

Key:
rats = rats / rodents; cited from earlier work
Dbh +/- and Dbh -/- mice = test: Elevated plus maze (EPM), cocaine-induced anxiety, Dbh mice; assay type: in vivo; details: for percent open arm time in EPM after cocaine (cocaine-induced anxiety): antagonist i.p. 10 min prior to cocaine 10 mg/kg i.p., propranolol 5, prazosin 0.5, yohimbine 2.5 mg/kg; for percent open time in EPM, antagonist alone: same doses, no cocaine, tested 20 minutes later, vs saline-treated; for percent open arm time in EPM after cocaine: disulfuram 3x200 mg/kg i.p. two hours apart, cocaine 10 mg/kg i.p. 20 min before test
From the text: Male and female Dbh +/− and −/− mice (aged 2 to 5 months) were individually housed on a reversed light cycle (lights on at 19:00, lights off at 7:00), and were allowed a minimum of two weeks to habituate to the new lighting conditions after moving from normal light cycle (lights on at 7:00, lights off at 19:00). Food and water were available ad libitum throughout the course of the study. Data from male and female mice were combined, since there were no detectable gender differences. Dbh mice were generated as described (15) and maintained on a mixed C57Bl6/J and 129SvEv background. Dbh +/− mice were used as controls, because they have normal brain catecholamine levels and are behaviorally identical to wild-type (Dbh +/+) mice (14-16). Three-month old male and female C57BL6/J mice (Jackson Labs, Bar Harbor, […].) were also used to generalize the findings from these experiments to a different strain of wild-type mouse. Housing, handling, and testing conditions for these animals were identical to those used in experiments with Dbh +/− mice.
Behavioral testing The EPM apparatus consisted of two open arms and two enclosed arms arranged in a plus orientation. The arms were elevated 30 inches above the floor, with each arm projecting 12 inches from the center. Because rodents naturally prefer dark, enclosed compartments, a greater willingness to explore the open, well-lit arms is believed to represent a decrease in the animal's anxiety. This interpretation has been validated by the efficacy of known anxiolytic and anxiogenic treatments in this paradigm (Paine et al., (2002) Behavioural Pharmacol. 13: […]; Gorman & Dunn (1993) Pharmacol. Biochem. & Behavior 45: 1-7; Pellow et al., (1985) J. Neurosci. Methods 14: 149-167; Johnston & File (1988) Pharmacol. Biochem. & Behavior 32: 151-156).
In all experiments, cocaine was injected 20 minutes prior to behavioral testing as described by Yang and colleagues (Yang et al., (1992) Pharmacol. Biochem. & Behavior 41: 643-650). To begin each test, mice were placed in the EPM facing one of the open arms and allowed to freely explore the apparatus for five minutes, during which time their behavior was videotaped. Videotapes were later scored by an observer who was blind to genotype and treatment group. The measure used for analysis was the percentage of time spent exploring the open arms, which was calculated by dividing the time spent in the open arms by the combined time spent in open and closed arms. Because some drug treatments and genetic manipulations alter overall locomotor activity, it was important to use this percentage measurement as the dependent variable for analysis (Pellow et al., (1985) J. Neurosci. Methods 14: 149-167).
Entry into an arm of the plus maze was defined as the animal placing all four paws in that particular compartment of the apparatus. All tests were run during the dark cycle, between 14:00 and 18:00. Mice were excluded from data analysis for any of the following reasons: if they jumped or fell off the maze after test had begun, if they had […] a seizure while on the testing apparatus, or if their open arm time was detected as an outlier using Grubb's test. Of 253 total mice tested, 10 were excluded from data analysis. Data were analyzed using independent samples t-tests, one-way ANOVA followed by Dunnett's post-hoc tests, or two-way ANOVA followed by Bonferroni post-hoc tests using Prism 4.0 for Macintosh. […]
This dosing regimen is known to decrease NE by ˜70% in the mouse brain (Bourdelat-Parks et al., (2005) Psychopharmacol. 183(1): 72-80). Mice received cocaine (10 mg/kg, i.p. at 10 ml/kg, dissolved in 0.9% saline) or saline two hours after the final pretreatment injection, and behavioral testing took place 20 minutes later, as described above. […]

mice = test: Cocaine-induced locomotion (ambulations in activity chambers); assay type: in vivo
Protocol: Locomotor activity measurement: Experiments were conducted in an isolated behavior room between 1000 and 1600 hrs. Ambulations (consecutive beam breaks) were measured in transparent plexiglass cages (40×20×20 cm^3) placed into a rack with seven infrared photobeams spaced 5 cm apart, each end beam 5 cm from the cage wall (San Diego Instruments Inc., LaJolla, Calif.). Mice were placed in the activity chambers for 4 hr, injected with cocaine (5, 10, or 20 mg/kg i.p.; Sigma-Aldrich, St Louis, Mo.), and ambulations were recorded for an additional 2 hr. Data were analyzed by ANOVA followed by Bonferroni post-hoc tests. For the antagonist studies, saline, the 5-HT1A antagonist WAY100635 (0.03 mg/kg), the 5-HT2 antagonist ketanserin (0.3 mg/kg), the D1 antagonist SCH23390 (0.03 mg/kg), or the D2 antagonist eticlopride were injected i.p. 30 min prior to cocaine (20 mg/kg). […] All drugs were purchased from Sigma-Aldrich (St Louis, Mo.).
Mice were implanted with minipumps for delivering either vehicle (50% DMSO, 0.9% NaCl or nepicastat (10 or 50 mg/kg/d). 3 weeks later, the mice were put in activity chambers, allowed to acclimate for 4 hrs, then injected with cocaine (10 mg/kg, i.p.) and ambulations measured for 2 additional hours, as shown in FIG. 8 (N=6 per group).
Two hours later, the mice were put in activity chambers, allowed to acclimate for 4 hrs, injected with cocaine (20 mg/kg, i.p.) and ambulations measured for 2 additional hours. (FIG. 9) (N=8 per group).

C57BL6/J wild type mice = test: Elevated plus maze (EPM), cocaine-induced anxiety, wild type C57BL6/J mice; assay type: in vivo
Protocol: Behavioral testing The EPM apparatus consisted of two open arms and two enclosed arms arranged in a plus orientation. The arms were elevated 30 inches above the floor, with each arm projecting 12 inches from the center. Because rodents naturally prefer dark, enclosed compartments, a greater willingness to explore the open, well-lit arms is believed to represent a decrease in the animal's anxiety. […]
In all experiments, cocaine was injected 20 minutes prior to behavioral testing as described by Yang and colleagues (Yang et al., (1992) Pharmacol. Biochem. & Behavior 41: 643-650). […] Videotapes were later scored by an observer who was blind to genotype and treatment group. The measure used for analysis was the percentage of time spent exploring the open arms, which was calculated by dividing the time spent in the open arms by the combined time spent in open and closed arms. […]
Entry into an arm of the plus maze was defined as the animal placing all four paws in that particular compartment of the apparatus. […] Mice were excluded from data analysis for any of the following reasons: if they jumped or fell off the maze after test had begun, if they had […] a seizure while on the testing apparatus, or if their open arm time was detected as an outlier using Grubb's test. […]

animal models = details: cited from earlier work
DBH [1] = molecular target: T1, DBH (Mus musculus, UniProt Q64237); details: three injections of 200 mg/kg i.p. spaced two hours apart; cited from earlier work
T1 construct: host or cells: peripheral and central tissues of animals, in vivo
T1 sequence (Q64237 1-622): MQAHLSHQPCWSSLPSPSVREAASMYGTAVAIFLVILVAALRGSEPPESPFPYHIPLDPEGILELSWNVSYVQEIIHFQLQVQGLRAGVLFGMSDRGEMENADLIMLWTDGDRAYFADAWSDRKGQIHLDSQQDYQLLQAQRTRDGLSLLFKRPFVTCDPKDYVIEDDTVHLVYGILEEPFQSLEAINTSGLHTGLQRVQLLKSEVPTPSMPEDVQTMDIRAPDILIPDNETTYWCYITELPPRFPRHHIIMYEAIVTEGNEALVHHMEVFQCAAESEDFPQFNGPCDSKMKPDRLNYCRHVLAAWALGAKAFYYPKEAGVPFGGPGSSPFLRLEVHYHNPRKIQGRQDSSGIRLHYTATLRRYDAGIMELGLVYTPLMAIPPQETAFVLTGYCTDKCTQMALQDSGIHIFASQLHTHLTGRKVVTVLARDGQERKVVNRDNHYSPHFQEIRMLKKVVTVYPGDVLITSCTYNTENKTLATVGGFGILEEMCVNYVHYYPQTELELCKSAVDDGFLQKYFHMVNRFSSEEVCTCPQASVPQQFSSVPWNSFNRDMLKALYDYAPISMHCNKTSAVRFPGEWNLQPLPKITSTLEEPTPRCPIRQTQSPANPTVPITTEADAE

DBH [2] = details: animals; cited from earlier work
DBH [3] = molecular target: T2, DBH (Homo sapiens, UniProt P09172); details: cited from earlier work
T2 sequence (P09172 1-617): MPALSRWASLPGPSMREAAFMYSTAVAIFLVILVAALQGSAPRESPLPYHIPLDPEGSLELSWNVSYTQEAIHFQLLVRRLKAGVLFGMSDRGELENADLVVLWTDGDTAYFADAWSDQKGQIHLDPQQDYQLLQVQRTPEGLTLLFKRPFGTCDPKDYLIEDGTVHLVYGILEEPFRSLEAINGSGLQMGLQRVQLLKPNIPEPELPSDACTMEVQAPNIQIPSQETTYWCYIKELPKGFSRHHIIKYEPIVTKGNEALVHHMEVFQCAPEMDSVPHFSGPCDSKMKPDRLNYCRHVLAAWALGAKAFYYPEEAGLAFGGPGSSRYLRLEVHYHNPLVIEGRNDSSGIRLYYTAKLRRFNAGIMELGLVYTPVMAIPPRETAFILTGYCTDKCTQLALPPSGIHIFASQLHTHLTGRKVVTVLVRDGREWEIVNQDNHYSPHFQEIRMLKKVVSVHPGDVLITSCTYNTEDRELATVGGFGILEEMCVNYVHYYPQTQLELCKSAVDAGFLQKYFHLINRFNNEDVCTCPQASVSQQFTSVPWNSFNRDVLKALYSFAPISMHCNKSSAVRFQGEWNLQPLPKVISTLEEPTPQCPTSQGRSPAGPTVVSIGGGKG

DBH [4] = molecular target: T2, DBH; design: host or cells: human subjects, in vivo; details: humans; cited from earlier work

For S=C(Nc1ccccc1)Nc1nccs1 [U-14,624], the “reinstatement of amphetamine self-administration” value (rats) is listed as “block”.

In the case of COC(=O)[C@@H]1[C@H]2C[C@H]3c4[nH]c5ccccc5c4CCN3C[C@@H]2CC[C@@H]1O [yohimbine], the “percent open arm time in EPM after cocaine (cocaine-induced anxiety)” value (Dbh +/- and Dbh -/- mice) is reported as “preserved; also recorded: did not” and the “percent open time in EPM, antagonist alone” value (from here on “percent open time in EPM”) (Dbh +/- and Dbh -/- mice) is reported as “no significant effect”.

In the case of NCc1c[nH]c(=S)n1[C@H]1CCc2c(F)cc(F)cc2C1 [nepicastat, S-5-amino methyl-1-(5,7-difluoro-1,2,3,4-tetrahydronapthalyl)-1,3-dihydroimidazole-2-thione hydrochloride], the “locomotion induced by cocaine” value (mice; prolonged (3 weeks) minipump treatment with 10 or 50 mg/kg/day, cocaine 10 mg/kg i.p., FIG. 8) is reported as “significantly increased” and the cocaine-induced locomotion (mice; single acute dose 50 mg/kg i.p., cocaine 20 mg/kg i.p., FIG. 9, hydrochloride) is reported as “did not significantly affect; also recorded: does not significantly affect”.

In the case of CC(C)NCC(O)COc1cccc2ccccc12 (stereo not drawn) [propranolol], the “percent open arm time in EPM after cocaine (cocaine-induced anxiety)” value (Dbh +/- and Dbh -/- mice) is reported as “abolished; also recorded: differed significantly from the control group; also recorded: attenuates cocaine-induced anxiety”, the “percent open time in EPM” value (Dbh +/- and Dbh -/- mice) is reported as “no significant effect” and the “percent open arm time in EPM after cocaine (cocaine-induced anxiety)” value (C57BL6/J wild type mice; propranolol 5 mg/kg i.p. 10 min prior to cocaine 20 mg/kg i.p.) is reported as “blocked; also recorded: attenuates cocaine-induced anxiety”. The “baseline EPM performance” value (C57BL6/J wild type mice; propranolol 5 mg/kg i.p., saline instead of cocaine) was “no effect”.

For CCN(CC)C(=S)SSC(=S)N(CC)CC [disulfuram, tetraethylthiuram], the “reinstatement of amphetamine self-administration” value (rats) is given as “attenuates; also recorded: block”, the cocaine sensitization (animal models) is given as “enhances cocaine sensitization” and the “locomotor response to acute administration of amphetamine” value (animal models) is given as “decreases”. The “locomotor response to acute administration of cocaine” value (animal models) was “decreases”, the “locomotion induced by cocaine” value (mice; disulfuram via osmotic minipump 50 mg/kg/day for 2 to 3 weeks, cocaine 10 mg/kg, cocaine-naive animals) was “decreased” and the “decrease of NE in the mouse brain” value (DBH [1]) was roughly 70%. For the same compound, the “dopamine (DA) in peripheral and central tissues” value (DBH [2]) was “increase dopamine (DA)”, the “norepinepherine (NE) in peripheral and central tissues” value (DBH [2]) was “decrease norepinepherine (NE)” and the “percent open arm time in EPM after cocaine” value (Dbh +/- and Dbh -/- mice) was “attenuates cocaine-induced anxiety”. For the same compound, the “percent open arm time in EPM after cocaine” value (Dbh +/- and Dbh -/- mice; listed as Disulfuram) was “abolished the ability of cocaine to reduce open arm exploration time; also recorded: significantly increased level of open arm exploration”, the “percent open arm time in EPM, saline instead of cocaine” value (Dbh +/- and Dbh -/- mice; disulfuram 3x200 mg/kg i.p., saline prior to testing) was “no effect” and the “IC50 for DBH” value (DBH [3]) was “low micromolar range”. The “NE and its metabolites in urine, blood, and cerebrospinal fluid” value (DBH [4]) was “decreases”.

With COc1cc2nc(N3CCN(C(=O)c4ccco4)CC3)nc(N)c2cc1OC [prazosin] the “percent open arm time in EPM after cocaine (cocaine-induced anxiety)” value (Dbh +/- and Dbh -/- mice) was “preserved; also recorded: did not” and the “percent open time in EPM” value (Dbh +/- and Dbh -/- mice) was “no significant effect”.
